The source of these data is PubChem BioAssay AID1117324 (Cheminformatics & Chemogenomics Research Group (CCRG), …, 2015).

Structures are written as SMILES. Calls of active or inactive are those of the source. How the calls were made is not given here. Bounds are passed on as bounds.

The assay concerns VEGF-stimulated ADSC/ECFC co-culture, nuclear area imaging. In words: nuclear area loss in endothelial-stromal co-culture, dose response, cell-based, VEGF stimulation, IC50 (AID 1117324).
With `Cc1ccc(Nc2nccc(N(C)c3ccc4c(C)n(C)nc4c3)n2)cc1S(N)(=O)=O`, the IC50 was > 10 µM (inactive).

Turning to `CO[C@@H]1[C@@H](OC)[C@H](C)[C@@](O)(CC(=O)O)O[C@H]1[C@H](C)[C@H]1O[C@@]2(CC[C@@](C)([C@H]3CC[C@@](C)([C@@H]4O[C@@H]([C@H]5O[C@](C)(O)[C@H](C)C[C@@H]5C)C[C@@H]4OC4C[C@H](OC)[C@@H](OC)[C@H](C)O4)O3)O2)C[C@H](O)[C@H]1C` (stereo not given in full), the IC50 was 2.57 µM.

As for `COc1ccc(Cc2nccc3cc(OC)c(OC)cc23)cc1OC`, the IC50 was > 10 µM (inactive).

Take `Cc1cc(OCCOCC[N+](C)(C)Cc2ccccc2)ccc1C(C)(C)CC(C)(C)C`: the IC50 was 8.7 µM (inactive).

Turning to `CCCCCCCCCCCC[N+](C)(C)CCOc1ccccc1`, the IC50 was 7.29 µM (inactive).

In the case of `CCCCCCCCCCCCNCCNCCNCC(=O)O`, the IC50 was > 10 µM (inactive).

Take `CCCOC(=O)c1cc(O)c(O)c(O)c1`: the IC50 is > 10 µM (inactive).

As for `CCOc1ccc2nc3cc(N)ccc3c(N)c2c1`, the IC50 is > 10 µM (inactive).

Consider `CC(C)(C)C(=O)OCOP(=O)(COCCn1cnc2c(N)ncnc21)OCOC(=O)C(C)(C)C`, for which the IC50 was > 10 µM (inactive).

Take `Cc1cc(O)c2c(O)c3c(O)cccc3cc2c1`: the IC50 was > 10 µM (inactive).

`C/C(=N\O)[C@@H](C)NCC(C)(C)CN[C@H](C)/C(C)=N/O`: the IC50 was > 10 µM (inactive).

Take `C[S+](CC[C@H](N)C(=O)O)C[C@H]1O[C@@H](n2cnc3c(N)ncnc32)[C@H](O)[C@H]1O` (stereo not given in full): the IC50 was > 10 µM (inactive).

With `O=c1oc2c(O)c(O)cc3c(=O)oc4c(O)c(O)cc1c4c23`, the IC50 is > 10 µM (inactive).

As to `COc1cc(C=C2CCC/C(=C\c3ccc(O)c(OC)c3)C2=O)ccc1O`, the IC50 was 6.98 µM (inactive).

With `COC(=O)N[C@H](C(=O)N[C@@H](Cc1ccccc1)[C@@H](O)CN(Cc1ccc(-c2ccccn2)cc1)NC(=O)[C@@H](NC(=O)OC)C(C)(C)C)C(C)(C)C`, the IC50 is > 10 µM (inactive).

Consider `CCCCN(CCCC)CCC(O)c1cc2c(Cl)cc(Cl)cc2c2cc(C(F)(F)F)ccc12` (stereo not given), for which the IC50 was > 10 µM (inactive).

Consider `O=C1C(I)=CC(=C(c2cc(I)c(O)c(I)c2)c2ccccc2C(=O)O)C=C1I`, for which the IC50 is > 10 µM (inactive).

With `CC(C)=CCC/C(C)=C/CC/C(C)=C/C(=O)OCC(=O)[C@@]1(O)CC[C@H]2[C@@H]3CCC4=CC(=O)C=C[C@]4(C)[C@H]3[C@@H](O)C[C@@]21C`, the IC50 is > 10 µM (inactive).

With `CCCCC(CC)COC(=O)C(C#N)=C(c1ccccc1)c1ccccc1` (stereo not given), the IC50 was 3.29 µM.

Regarding `COC(=O)c1nc(Cl)c(Cl)nc1N`, the IC50 was 6.8 µM (inactive).

Take `O=[N+]([O-])C(Br)(CO)CO`: the IC50 is > 10 µM (inactive).

`CC1=C(C(=O)OC(C)C)C(c2cccc([N+](=O)[O-])c2)C(C(=O)OC2CN(C(c3ccccc3)c3ccccc3)C2)=C(N)N1` (stereo not given): the IC50 is 7.39 µM (inactive).

As to `Cc1cc(OI)c(C(C)C)cc1-c1cc(C(C)C)c(OI)cc1C`, the IC50 was > 10 µM (inactive).

Regarding `CCOC(=O)[C@H](CCc1ccccc1)N[C@@H](C)C(=O)N1Cc2cc(OC)c(OC)cc2C[C@H]1C(=O)O`, the IC50 was > 10 µM (inactive).

Consider `Clc1ccc(Nc2nnc(Cc3ccncc3)c3ccccc23)cc1`, for which the IC50 is > 10 µM (inactive).

As for `Clc1ccc(CCC(Cn2ccnc2)Sc2c(Cl)cccc2Cl)cc1` (stereo not given), the IC50 is 6.74 µM (inactive).

As to `COc1ccc(CCN2CCC(Nc3nc4ccccc4n3Cc3ccc(F)cc3)CC2)cc1`, the IC50 was > 10 µM (inactive).

As for `COc1cccc2c1C(=O)c1c(O)c3c(c(O)c1C2=O)C[C@@](O)(C(=O)CO)C[C@@H]3O[C@H]1C[C@H](N)[C@H](O[C@@H]2CCCCO2)[C@H](C)O1`, the IC50 was 0.995 µM.

For the molecule `O=C(NC1CCN(CCc2c[nH]c3ccccc23)CC1)c1ccccc1`, the IC50 was > 10 µM (inactive).

`Oc1ccc(Cl)cc1Cc1cc(Cl)ccc1O`: the IC50 was 6 µM (inactive).

Broadly, the IC50 is the concentration that gives 50% inhibition.
